Values after ≈ are worked out from the molar mass of the structure shown.
Experiments:
[1] = system: Mycobacterium tuberculosis; assay: The compound was tested for its ability to inhibit the growth of Mycobacterium tuberculosis strain H37Rv; assay type: functional
Mycobacterium avium [2] = assay: The compound was tested for its ability to inhibit the growth of Mycobacterium avium.; assay type: functional
[3] = system: Mycobacterium tuberculosis; assay: The compound was tested for its ability to inhibit the growth of Mycobacterium tuberculosis strain H6/99; assay type: functional
[4] = Solubility in DMSO:water(9:1); assay type: physicochemical; conditions: read-out: S
Mycobacterium avium [5] = assay: The compound was tested for its ability to inhibit the growth of Mycobacterium avium; Resistant; assay type: functional, organism-based
[6] = system: Mycobacterium tuberculosis; assay: The compound was tested for its ability to inhibit the growth of Mycobacterium tuberculosis strain H37Rv; Sensitive; assay type: functional, organism-based

Row | SMILES | MIC [1] [µg/mL] | MIC (Mycobacterium avium [2]) [µg/mL] | MIC [3] [µg/mL] | solubility [4] [µM] | MIC (Mycobacterium avium [5]) | MIC [6]
1 | COCCOCCOCC1CCCN1C (stereo not given) | > 500 | > 500 | > 500 | – | – | –
2 | COCCOCCOCC1N(C)CC23C4=C5C6=C7c8c9c%10c%11c%12c%13c%14c(c2c2c%15c%16c%17c%18c%19c(c5c5c%20c%21c%22c%23c(c8C%22C65)c%10c5c%11c6c%13c8c(c%15%14)c%16c%10c%18c%11c(c%20%19)c%21c%13c%23c5c5c%13c%11c%10c8c65)C%17C42)C%12C9C713 (stereo not given) | – | – | – | 15 (≈ 13.7 µg/mL) | – | –
3 | COCCOCCOCC[N+]1(C)CC23C4=C5C6=C7c8c9c%10c%11c%12c%13c%14c(c2c2c%15c%16c%17c%18c%19c(c5c5c%20c%21c%22c%23c(c8C%22C65)c%10c5c%11c6c%13c8c(c%15%14)c%16c%10c%18c%11c(c%20%19)c%21c%13c%23c5c5c%13c%11c%10c8c65)C%17C42)C%12C9C73C1.[I-] (stereo not given) | 50 | 500 | 500 | 43 | – | –
4 | COCCOCCOCC1C23C4=C5C6=C7C8c9c(c%10c%11c%12c%13c%14c%15c(c4c4c%16c%17c%18c%19c%20c(c6c6c%21c%22c(c%23c9c%11c9c%23c%11c%22c%22c(c%20%21)c%19c%19c%17c%17c(c%15%16)c%14c%14c%12c9c9c%11c%22c%19c%17c%149)C68)C5C4%18)C2C%10%13)C73C[N+]1(C)C.[I-] (stereo not given) | 50 | 500 | 5 | 15 | – | –
5 | COCCOCCOCC[N+]1(C)CCCC1.[I-] | > 500 | > 500 | > 500 | – | – | –
6 | COCCOCCOCC[N+]1(C)CC23C4=C5C6=C7c8c9c%10c%11c%12c%13c%14c(c2c2c%15c%16c%17c%18c%19c(c5c5c%20c%21c%22c%23c(c8C%22C65)c%10c5c%11c6c%13c8c(c%15%14)c%16c%10c%18c%11c(c%20%19)c%21c%13c%23c5c5c%13c%11c%10c8c65)C%17C42)C%12C9C73C1COCCOCCOC.[I-] (stereo not given) | 50 | 50 | 5 | 95 | – | –
7 | COCCOCCOCCN1CC23C4=C5C6=C7c8c9c%10c%11c%12c%13c%14c(c2c2c%15c%16c%17c%18c%19c(c5c5c%20c%21c%22c%23c(c8C%22C65)c%10c5c%11c6c%13c8c(c%15%14)c%16c%10c%18c%11c(c%20%19)c%21c%13c%23c5c5c%13c%11c%10c8c65)C%17C42)C%12C9C73C1 (stereo not given) | – | – | – | 15 (≈ 13.7 µg/mL) | – | –
8 | CO[C@H]1/C=C/O[C@@]2(C)Oc3c(C)c(O)c4c(O)c(c(/C=N/N5CCN(C)CC5)c(O)c4c3C2=O)NC(=O)/C(C)=C\C=C\[C@H](C)[C@H](O)[C@@H](C)[C@@H](O)[C@@H](C)[C@H](OC(C)=O)[C@@H]1C | – | – | – | – | Resistant | Sensitive
9 | COCCOCCOCCN1CCCC1COCCOCCOC (stereo not given) | > 500 | > 500 | > 500 | – | – | –
10 | COCCOCCOCCN1CCCC1 | > 500 | > 500 | > 500 | – | – | –
11 | COCCOCCOCC1CCC[N+]1(C)C.[I-] (stereo not given) | > 500 | > 500 | > 500 | – | – | –
12 | COCCOCCOCCN1CC23C4=C5C6=C7c8c9c%10c%11c%12c%13c%14c(c2c2c%15c%16c%17c%18c%19c(c5c5c%20c%21c%22c%23c(c8C%22C65)c%10c5c%11c6c%13c8c(c%15%14)c%16c%10c%18c%11c(c%20%19)c%21c%13c%23c5c5c%13c%11c%10c8c65)C%17C42)C%12C9C73C1COCCOCCOC (stereo not given) | 500 (≈ 477 µM) | 50 (≈ 47.7 µM) | 500 (≈ 477 µM) | 30 (≈ 31.4 µg/mL) | – | –
13 | NNC(=O)c1ccncc1 | – | – | – | – | Resistant | Sensitive
14 | COCCOCCOCC[N+]1(C)CCCC1COCCOCCOC.[I-] (stereo not given) | > 500 | > 500 | > 500 | – | – | –

Source: ChEMBL document CHEMBL1132871, “Antimycobacterial activity of ionic fullerene derivatives” (Bioorg Med Chem Lett, 2000)
